{"source": "patent US9737525B2", "about": "“Small molecule activators of NRF2 pathway” (The General Hospital Corporation, priority 2013, dated 2017)", "key": {"TNFα": {"system": "TNFα", "assay": "TNFα protein in brain of HD mouse model R6/2", "type": "in vivo", "details": "R6/2 mice, daily i.p. 50 mg/kg, 4 weeks", "procedure": "To assess protein levels, cell extracts were prepared from cells washed with PBS and lysed with buffer containing 2% SDS, Complete EDTA-free Protease Inhibitor Cocktail (Roche) and 1 mM phenylmethylsulfonyl fluoride. To prepare brain extracts for analysis, frozen mouse cortical tissues were homogenized in PBS containing protease inhibitors with an Kontes Pellet Pestle (Kimble/Kontes). They were later sonicated and lysed overnight at 4° C. in 2× volume of lysis buffer containing 2% SDS and protease inhibitors. Protein concentrations in ST14A cell extracts and homogenized cortical tissues were evaluated using a BCA analysis kit and normalized. Samples were prepared in a SDS buffer containing DTT and separated on bis-acrylamide protein gels via electrophoresis and transferred onto a 0.2 μm PVDF membrane). […]\nFor this animal trial, the well-characterized transgenic R6/2 mouse model of HD was selected, in which severe neurological phenotypes and premature death at age of 12-13 week is conferred by expression of a human HTT exon 1 fragment containing a pathological ˜150Q repeat tract (Mangiarini et al., 1996). […] Body weights were recorded weekly at the same time of day. At 10 weeks of age, mice were sacrificed 2 hrs after the last injection; brains were removed and snap frozen in liquid nitrogen and kept frozen at −80° C. until analyzed. […]"}, "[1]": {"system": "mutant HTT exon 1 fragment", "assay": "Mutant HTT exon 1 levels in R6/2 mice (HTRF)", "type": "in vivo, mouse", "details": "50 mg/kG daily for 3 weeks", "procedure": "In effects of brain-permeable MIND4 on clearance misfloded mutant HTT fragments have been tested in HD mouse model R6/2, expressing mutant HTT exon 1 fragment. Symptomatic HD mice (5 week old) have been treated with MIND4 at 50 mg/kG daily dose for 3 weeks. Treatment effects on levels of mutant exon 1 HTT have been measured by a highly sensitive HTRF method (FIG. 17C) as described (Mosckovitch-Lopatin, 2010; Chopra, 2012)."}, "[2]": {"system": "α-tubulin K40 and histone H3 acetylation", "assay": "Acetylation of SIRT2 substrates in wild type primary cortical neurons", "type": "cell-based, mouse", "procedure": "To assess protein levels, cell extracts were prepared from cells washed with PBS and lysed with buffer containing 2% SDS, Complete EDTA-free Protease Inhibitor Cocktail (Roche) and 1 mM phenylmethylsulfonyl fluoride. To prepare brain extracts for analysis, frozen mouse cortical tissues were homogenized in PBS containing protease inhibitors with an Kontes Pellet Pestle (Kimble/Kontes). They were later sonicated and lysed overnight at 4° C. in 2× volume of lysis buffer containing 2% SDS and protease inhibitors. Protein concentrations in ST14A cell extracts and homogenized cortical tissues were evaluated using a BCA analysis kit and normalized. Samples were prepared in a SDS buffer containing DTT and separated on bis-acrylamide protein gels via electrophoresis and transferred onto a 0.2 μm PVDF membrane). Membranes were probed for NQO1 (Sigma N5288, 1:1,000), GCLM, (Abcam ab126704, 1:800), SIRT2 (Sigma S8447, 1:2,500), histone H3 (Cell Signaling 4499, 1:2,000), acetylated H3 (K56) (Millipore 04-1135, 1:500), TNFα (Abcam ab1793, 1:1,500), GADPH (Millipore MAB374, 1:10,000), actin (Sigma A2066, 1:1250), α-tubulin (Sigma T6074, 1:20,000), and acetylated α-tubulin (Sigma T6793, 1:2,500) overnight in 5% milk in PBST at 4° C. on a rocker. Membranes were thrice washed in PBST for 15 min on a shaker and incubated in either an anti-rabbit-HRP (Bio-Rad 170-5046, 1:10,000) or anti-mouse-HRP (Sigma A3682, 1:4,000) secondary solution as appropriate in 3% milk in PBST for 1 hr at room temperature on a rocker. After four washes of 15 min in PBST on a shaker, blots were visualized using SuperSignal West Pico Chemiluminescent Substrate (Pierce 34080) or SuperSignal West Dura Extended Duration Substrate (Thermo 34075) and exposed on Scientific Imaging Film (Kodak 864 6770).\nBased upon the robust neuroprotection observed in HD model systems expressing both mutant HTT fragments and full-length mutant HTT, verification of the bioactivity of MIND4 as SIRT2 inhibitor in primary neurons was sought. […]"}, "[3]": {"system": "medium spiny neurons (MSNs) expressing mHTTex1", "assay": "Acutely transfected rat brain slice culture assay", "type": "cell-based", "procedure": "Coronal brain slices (250 μm thick) containing both cortex and striatum were prepared from CD Sprague-Dawley rat pups at postnatal day 10 and placed into interface culture as previously described (Reinhart et al., 2011). A biolistic device (Helios Gene Gun; Bio-Rad) was then used to co-transfect the brain slices with YFP visual reporter and a 90 amino acid mutant huntingtin plasmid containing human htt exon-1 harboring a 73 CAG repeat to induce neurodegeneration of medium spiny neurons (MSNs). mHTTex1 expression induced progressive neurodegeneration of medium spiny neurons (MSNs) compared to controls over a period of 4 days.\nMIND4 was added to the culture wells at the time of slice preparation and transfection to a final DMSO concentration of 0.1%; this concentration of DMSO was also added to all control wells. The positive control used for these experiments was the pan-caspase inhibitor Boc-D-FMK at 100 μM (Varna et al., 2007). YFP co-transfected MSNs were identified 4 days after incubation by their location within the striatum and by their characteristic dendritic arborization as previously described (Crittenden et al., 2010; Reinhart et al., 2011). […] Ordinate axis expresses the mean numbers of healthy YFP-positive MSNs per striatal region in each brain slice. […]"}}, "data": [{"smiles": "O=[N+]([O-])c1ccc(Sc2nnc(COc3ccccc3)n2-c2ccccc2)c2ncccc12", "note": "[MIND4, 5-nitro-8-{[5-(phenoxymethyl)-4-phenyl-4H-1,2,4-triazol-3-yl]thio}quinoline]", "values": [{"measurement": "TNFα protein levels in cortical extracts", "setting": "TNFα", "result": "striking reduction of TNFα"}, {"measurement": "Mutant HTT exon 1 fragments in cortex", "setting": "[1]", "result": "Significant reduction of mutant HTT exon I fragments"}, {"measurement": "Acetylation of histone 3 K56 and K27", "setting": "[2]; primary neurons, 6 hr", "result": "increased acetylation of histone 3 K56 and K27"}, {"measurement": "Acetylation of α-tubulin and Histone 3 K56", "setting": "[2]; wild type primary cortical neurons (DIV11), 6 hours", "result": "only subtle increases of acetylation"}, {"measurement": "Neuroprotection relative to Boc-D-FMK at 100 μM", "setting": "[3]; 10 μM", "result": "comparable to the efficacy of a reference compound"}, {"measurement": "Protection against mHTTex1-induced neurodegeneration of MSNs", "setting": "[3]; concentration-dependent, 4 days", "result": "significantly protected against mHTTex1-induced neurodegeneration"}]}]}
